Data: patent US20160031839A1, “ARGININE […] INHIBITORS AND USES THEREOF” (EPIZYME, INC., priority 2013, published 2016)
pIC50: −log10 of the molar value. Read-outs that look alike come from different tables or passages of the source.

What was measured:
PRMT6 = target: T1, PRMT6 (Homo sapiens, UniProt Q96LA8); test: PRMT6 Biochemical Assay
T1 construct: Expressed full-length human Flag- and His-tagged PRMT6 protein was purified from cell paste; made in house; host or cells: HEK 293F cells (BacMam baculovirus)
T1 sequence (Q96LA8 with tags, fused parts or gaps): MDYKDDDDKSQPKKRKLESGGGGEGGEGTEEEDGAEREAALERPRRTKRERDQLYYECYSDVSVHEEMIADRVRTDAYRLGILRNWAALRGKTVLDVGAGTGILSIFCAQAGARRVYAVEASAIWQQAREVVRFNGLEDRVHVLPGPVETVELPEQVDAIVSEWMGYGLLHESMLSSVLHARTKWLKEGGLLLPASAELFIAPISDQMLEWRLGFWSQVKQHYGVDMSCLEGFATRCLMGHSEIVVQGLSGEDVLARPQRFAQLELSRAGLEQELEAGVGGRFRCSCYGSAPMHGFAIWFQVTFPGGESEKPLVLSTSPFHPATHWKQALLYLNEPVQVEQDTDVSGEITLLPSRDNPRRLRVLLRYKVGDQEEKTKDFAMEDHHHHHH
Text: Peptide representative of human histone H4 residues 36-50 was synthesized with an N-terminal linker-affinity tag motif and a C-terminal amide cap by 21st Century Biochemicals. The peptide was purified by high-performance liquid chromatography (HPLC) to greater than 95% purity and confirmed by liquid chromatography mass spectrometry (LC-MS). The sequence was Biot-Ahx-[…]-amide and contained a monomethylated lysine at position 44 (SEQ ID NO.:5).
Full-length human PRMT6 (NM_018137.2) transcript clone was amplified from an HEK 293 cDNA library, incorporating a flanking 5′ sequence encoding a FLAG tag ([…]) (SEQ ID NO.:6) fused directly to Ser 2 of PRMT6 and a 3′ sequence encoding a hexa His sequence (HHHHHH) (SEQ ID NO.:17) fused directly to Asp 375. The amplified gene was subcloned into pFastBacMam (Viva Biotech).
Column was washed with 20 mM imidazole in the same buffer and Flag-PRMT6-His was eluted with 150 mM imidazole. Pooled fractions were dialysed against buffer Ni-A and further purified by anti-flag M2 affinity chromatography. Flag-PRMT6-His was eluted with 200 ug/ml FLAG peptide in the same buffer. Pooled fractions were dialysed in 20 mM Tris, 150 mM NaCl, 10% glycerol and 5 mM (3-mercaptoethanol, pH 7.8. The purity of recovered protein was 95%.
General Procedure for PRMT6 Enzyme Assays on Peptide Substrates.
The assays were all performed in a buffer consisting of 20 mM Bicine (pH=7.6), 1 mM TCEP, 0.005% BSG, and 0.002% Tween 20, prepared on the day of use. Compounds in 100% DMSO (1 ul) were spotted into a polypropylene 384-well V-bottom plates (Greiner) using a Platemate Plus outfitted with a 384-channel head (Thermo Scientific). DMSO (1 ul) was added to Columns 11, 12, 23, 24, rows A-H for the maximum signal control and 1 ul of SAH, a known product and inhibitor of PRMT6, was added to columns 11, 12, 23, 24, rows I-P for the minimum signal control. A cocktail (40 ul) containing the PRMT6 enzyme was added by Multidrop Combi (Thermo-Fisher). The compounds were allowed to incubate with PRMT6 for 30 min at room temperature, then a cocktail (10 ul) containing SAM and peptide was added to initiate the reaction (final volume=51 ul). The final concentrations of the components were as follows: PRMT6 was 1 nM, ^3H-SAM was 200 nM, non-radiolabeled SAM was 250 nM, peptide was 75 nM, SAH in the minimum signal control wells was 1 mM, and the DMSO concentration was 2%. The assays were stopped by the addition of non-radiolabeled SAM (10 ul) to a final concentration of 400 uM, which dilutes the ^3H-SAM to a level where its incorporation into the peptide substrate is no longer detectable. 50 ul of the reaction in the 384-well polypropylene plate was then transferred to a 384-well Flashplate and the biotinylated peptides were allowed to bind to the streptavidin surface for at least 1 hour before being washed once with 0.1% Tween20 in a Biotek ELx405 plate washer. The plates were then read in a PerkinElmer TopCount plate reader to measure the quantity of ^3H-labeled peptide bound to the Flashplate surface, measured as disintegrations per minute (dpm) or alternatively, referred to as counts per minute (cpm).
(§1) Where dpm=disintegrations per minute, cmpd=signal in assay well, and min and max are the respective minimum and maximum signal controls.
(§2) Where top and bottom are the normally allowed to float, but may be fixed at 100 or 0 respectively in a 3-parameter fit. The Hill Coefficient normally allowed to float but may also be fixed at 1 in a 3-parameter fit. Y is the % inhibition and X is the compound concentration.

PRMT8 = target: T2, PRMT8 (Homo sapiens, UniProt Q9NR22); test: PRMT8 Biochemical Assay
T2 construct: Full-length human PRMT8 (NM_019854.4) isoform 1 transcript clone; made in house; host or cells: E. coli BL21(DE3) Gold
T2 sequence (Q9NR22 whole entry, canonical isoform): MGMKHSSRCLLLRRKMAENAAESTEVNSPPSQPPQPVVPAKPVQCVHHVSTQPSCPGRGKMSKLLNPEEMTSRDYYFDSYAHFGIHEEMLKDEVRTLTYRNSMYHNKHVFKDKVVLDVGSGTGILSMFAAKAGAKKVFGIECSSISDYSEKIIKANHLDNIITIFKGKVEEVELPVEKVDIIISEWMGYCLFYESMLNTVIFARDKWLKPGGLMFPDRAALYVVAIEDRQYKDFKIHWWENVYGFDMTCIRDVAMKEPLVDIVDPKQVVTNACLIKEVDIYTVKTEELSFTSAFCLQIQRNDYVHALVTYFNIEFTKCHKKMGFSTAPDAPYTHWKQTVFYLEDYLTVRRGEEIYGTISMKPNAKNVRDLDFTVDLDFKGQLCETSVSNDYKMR
Text: Peptide representative of human histone H4 residues 31-45 was synthesized with an N-terminal linker-affinity tag motif and a C-terminal amide cap by 21st Century Biochemicals. The peptide was purified by high-performance liquid chromatography (HPLC) to greater than 95% purity and confirmed by liquid chromatography mass spectrometry (LC-MS). The sequence was Biot-Ahx-[…]-amide (SEQ ID NO.:8).
The resulting construct encodes an N-terminal GST tag and a thrombin cleavage sequence
The column was washed with 50 mM phosphate buffer, 100 mM NaCl, 5% glycerol, 5 mM […], pH 7.8 and PRMT8 was eluted by 100 mM phosphate in the same buffer. Protein was concentrated and buffer was exchanged to 50 mM Tris, 300 mM NaCl, 10% glycerol, 5 mM 3-mercaptoethanol, pH 7.8 by ultrafiltration. The purity of recovered protein was 89%.
General Procedure for PRMT8 Enzyme Assays on Peptide Substrates.
The assays were all performed in a buffer consisting of 20 mM Bicine (pH=7.6), 1 mM TCEP, 0.005% BSG, and 0.002% Tween 20, prepared on the day of use. Compounds in 100% DMSO (1 ul) were spotted into a polypropylene 384-well V-bottom plates (Greiner) using a Platemate Plus outfitted with a 384-channel head (Thermo Scientific). DMSO (1 ul) was added to Columns 11, 12, 23, 24, rows A-H for the maximum signal control and 1 ul of SAH, a known product and inhibitor of PRMT8, was added to columns 11, 12, 23, 24, rows I-P for the minimum signal control. A cocktail (40 ul) containing the PRMT8 enzyme was added by Multidrop Combi (Thermo-Fisher). The compounds were allowed to incubate with PRMT8 for 30 min at room temperature, then a cocktail (10 ul) containing ^3H-SAM and peptide was added to initiate the reaction (final volume=51 ul). The final concentrations of the components were as follows: PRMT8 was 1.5 nM, ^3H-SAM was 50 nM, non-radiolabeled SAM was 550 nM, peptide was 150 nM, SAH in the minimum signal control wells was 1 mM, and the DMSO concentration was 2%. The assays were stopped by the addition of non-radiolabeled SAM (10 ul) to a final concentration of 400 uM, which dilutes the ^3H-SAM to a level where its incorporation into the peptide substrate is no longer detectable. 50 ul of the reaction in the 384-well polypropylene plate was then transferred to a 384-well Flashplate and the biotinylated peptides were allowed to bind to the streptavidin surface for at least 1 hour before being washed once with 0.1% Tween20 in a Biotek ELx405 plate washer. The plates were then read in a PerkinElmer TopCount plate reader to measure the quantity of ^3H-labeled peptide bound to the Flashplate surface, measured as disintegrations per minute (dpm) or alternatively, referred to as counts per minute (cpm).
as §1, §2

[1] = Table 2, biochemical evaluation, read-out: PRMT6 IC50 (class)
[2] = Table 2a, numerical, single experiment or average of multiple experiments, read-out: PRMT6 IC50
[3] = Table 2, biochemical evaluation, read-out: PRMT8 IC50 (class)
[4] = Table 2a, numerical, single experiment or average of multiple experiments, read-out: PRMT8 IC50

SMILES	pIC50 (PRMT6; [1])	pIC50 (PRMT6; [2])	pIC50 (PRMT8; [3])	pIC50 (PRMT8; [4])
CN(CCN)Cc1ccnn1-c1ccc(C#N)cc1 [Compound 2, 4-(5-(((2-aminoethyl)(methyl)amino)methyl)-1H-pyrazol-1-yl)benzonitrile]	> 7.00	7.01	5.52 to 6.00	5.89
CN(CCN)Cc1ocnc1-c1ccc(C#N)cc1 [Compound 4, 4-(5-(((2-aminoethyl)(methyl)amino)methyl)oxazol-4-yl)benzonitrile]	6.00 to 7.00	6.78	6.00 to 7.00	6.29
CN(CCN)Cc1cnnn1-c1ccc(C#N)cc1 [Compound 5, 4-(5-(((2-aminoethyl)(methyl)amino)methyl)-1H-1,2,3-triazol-1-yl)benzonitrile]	< 5.00	< 5.00		
CN(CCN)Cc1n[nH]nc1-c1ccc(C#N)cc1 [Compound 3, 4-(5-(((2-aminoethyl)(methyl)amino)methyl)-2H-1,2,3-triazol-4-yl)benzonitrile]	> 7.00	7.15	5.52 to 6.00	5.81
CN(CCN)Cc1[nH]cnc1-c1ccc(C#N)cc1 [Compound 10, 4-(5-(((2-aminoethyl)(methyl)amino)methyl)-1H-imidazol-4-yl)benzonitrile]	6.00 to 7.00	6.77	5.00 to 5.52	5.50
CC(C)Oc1ccc(-n2nccc2CN(C)CCN)cc1 [Compound 8, N^1-((1-(4-isopropoxyphenyl)-1H-pyrazol-5-yl)methyl)-N^1-methylethane-1,2-diamine]	> 7.00	7.33	> 7.00	7.05
CN(CCN)Cc1cncn1-c1ccc(C#N)cc1 [Compound 6, 4-(5-(((2-aminoethyl)(methyl)amino)methyl)-1H-imidazol-1-yl)benzonitrile]	5.52 to 6.00	5.96	5.00 to 5.52	5.09
CN(CCN)Cc1ncoc1-c1ccc(C#N)cc1 [Compound 1, 4-(4-(((2-aminoethyl)(methyl)amino)methyl)oxazol-5-yl)benzonitrile]	6.00 to 7.00	6.46	5.00 to 5.52	5.73
CN(CCN)Cc1nsnc1-c1ccc(C#N)cc1 [Compound 7, 4-(4-(((2-aminoethyl)(methyl)amino)methyl)-1,2,5-thiadiazol-3-yl)benzonitrile]	6.00 to 7.00	6.95	6.00 to 7.00	6.35
CN(CCN)Cc1oncc1-c1ccc(F)cc1 [Compound 11, N^1-((4-(4-fluorophenyl)isoxazol-5-yl)methyl)-N^1-methylethane-1,2-diamine]	5.52 to 6.00	5.53	< 5.00	< 5.00
CN(CCN)Cc1ccnn1-c1ccc(Oc2ccccc2)cc1 [Compound 9]	> 7.00	8.17	> 7.00	7.14
